Laboratory results published in patent US20260217729A1, “HALOGEN-S[…] AMIDE DERIVATIVE, PREPARATION METHOD THEREFOR, AND USE THEREOF” (HANGZHOU ADCORIS BIOPHARMA CO., LTD, priority 2023, published 2026).
pIC50: −log10 of the molar value. Read-outs that look alike come from different tables or passages of the source.

Assays:
Assay type in all cases: cell-based
[1] = test system: human lung cancer cells NCI-H1975; experiment: Tumor cell growth inhibitory activity (CCK-8), NCI-H1975; conditions: 72 h incubation, read-out: IC50 for inhibiting the growth of tumor cells, NCI-H1975
Procedure: (§1) Human esophageal cancer cells OE33, human breast cancer cells MDA-MB-231, human gastric cancer cells NCI-N87, human lung cancer cells NCI-H1975, human esophageal cancer cells TE12, human breast cancer cells SK-BR-3, etc., were cultured in RPMI1640 (Cellmax) supplemented with 10% fetal bovine serum (Cellmax). Tumor cells in the exponential growth phase were diluted to a concentration of 1×10^5 cells/mL with culture medium and added to 96-well cell culture plates at 100 μL per well, then returned and incubated overnight in a 37° C. incubator with 5% CO2. On the following day, the compounds were diluted to concentrations of 10000 nM, 2000 nM, 400 nM, 80 nM, 16 nM, 3.2 nM, 0.64 nM, and 0.13 nM with culture medium, and the diluted compounds were added to the 96-well cell culture plates at 2 μL per well, with three replicate wells for each concentration. Negative control and blank control groups without addition of compounds were added with 2 μL of the dilution liquid per well. After the addition of the compounds, the plates were returned to the 37° C. incubator with 5% CO2 to continue the incubation for 72 h. After the incubation, the cell culture plates were removed, and the culture medium in the plates was aspirated using a pipette. Then, 100 μL of culture medium containing 10% CCK-8 was added to each well, and the plates were incubated at 37° C. for 3 h. After the incubation, the plates were removed, kept in the dark, and placed in an ELISA plate. Absorbance was measured at 630 nm as the reference wavelength and 450 nm as the test wavelength. Based on the absorbance values, the IC50 values (Table 1) were calculated using the four-parameter logistic regression method in GraphPad.

[2] = test system: human esophageal cancer cells TE12; experiment: Tumor cell growth inhibitory activity (CCK-8), TE12; conditions: 72 h incubation, read-out: IC50 for inhibiting the growth of tumor cells, TE12
Procedure: as §1

[3] = test system: human breast cancer cells MDA-MB-231; experiment: Tumor cell growth inhibitory activity (CCK-8), MDA-MB-231; conditions: MDA-MB-231 cells, 72 h incubation, read-out: IC50 for inhibiting the growth of tumor cells, MDA-MB-231
Procedure: as §1

[4] = test system: human gastric cancer cells NCI-N87; experiment: Tumor cell growth inhibitory activity (CCK-8), NCI-N87; conditions: 72 h incubation, read-out: IC50 for inhibiting the growth of tumor cells, NCI-N87
Procedure: as §1

[5] = test system: human breast cancer cells SK-BR-3; experiment: Tumor cell growth inhibitory activity (CCK-8), SK-BR-3; conditions: SK-BR-3 cells, 72 h incubation, read-out: IC50 for inhibiting the growth of tumor cells, SK-BR-3
Procedure: as §1

[6] = test system: Human esophageal cancer cells OE33; experiment: Tumor cell growth inhibitory activity (CCK-8), OE33; conditions: 72 h incubation, read-out: IC50 for inhibiting the growth of tumor cells, OE33
Procedure: as §1

SMILES	pIC50 [1]	pIC50 [2]	pIC50 [3]	pIC50 [4]	pIC50 [5]	pIC50 [6]	pIC50 ([1]; Homo sapiens)	pIC50 ([2]; Homo sapiens)	pIC50 ([3]; Homo sapiens)	pIC50 ([4]; Homo sapiens)	pIC50 ([5]; Homo sapiens)	pIC50 ([6]; Homo sapiens)
CC[C@@]1(O)C(=O)OCc2c1cc1n(c2=O)Cc2c-1nc1cc(F)c(C)c3c1c2[C@@H](NC(=O)C(F)C(N)=O)CC3 (stereo partly drawn) [Compound 1, N-(2′-fluoro-3′-amino-3′-oxo-propanoyl) exatecan]	6.22	6.47	< 6.00	7.92	7.75	7.42						
CC[C@@]1(O)C(=O)OCc2c1cc1n(c2=O)Cc2c-1nc1cc(F)c(C)c3c1c2[C@@H](NC(=O)CNCC(F)(F)F)CC3 [Compound 2, N—(N-(2′-trifluoroethyl)aminoacetyl)exatecan]	7.33	7.90	6.62	9.35	9.00	8.96						
CC[C@@]1(O)C(=O)OCc2c1cc1n(c2=O)Cc2c-1nc1cc(F)c(C)c3c1c2[C@@H](NC(=O)C(N)C(F)(F)F)CC3 (stereo partly drawn) [Compound 3, 2′-amino-3′,3′,3′-trifluoropropanoyl exatecan]							7.25	7.68	6.58	8.76	8.52	8.25
CC[C@@]1(O)C(=O)OCc2c1cc1n(c2=O)Cc2c-1nc1cc(F)c(C)c3c1c2[C@@H](NC(=O)[C@@H]1CC(F)(F)CN1)CC3 [Compound 4, 4′,4′-difluoroprolyl exatecan]							7.39	7.95	6.70	10.00	9.46	9.12
CC[C@@]1(O)C(=O)OCc2c1cc1n(c2=O)Cc2c-1nc1cc(F)c(C)c3c1c2[C@@H](NC(=O)C(F)F)CC3 [Compound 5, 2′,2′-difluoroacetyl exatecan]							7.86	7.73	6.39	9.06	8.69	8.36
CC[C@@]1(O)C(=O)OCc2c1cc1n(c2=O)Cc2c-1nc1cc(F)c(C)c3c1c2[C@H](NC(=O)C(C)(F)F)CC3 [Compound 6, 2′,2′-difluoropropionyl exatecan]							7.41	8.12	6.84	9.78	9.49	9.21
CC[C@@]1(O)C(=O)OCc2c1cc1n(c2=O)Cc2c-1nc1cc(F)c(C)c3c1c2[C@@H](NC(=O)CO)CC3 [Dxd, reference compound]							7.13	7.67	6.68	8.87	8.35	8.18
